Test system: NOMO1
Test: cell viability relative to DMSO control; higher = less cytotoxic
Details: 48 h
Method in brief: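 Viability, reported as a per-plate percentage of DMSO wells with cell-free wells as background, came from CellTiter-Glo One luminescence. Reading took place after 48 h at 37°C. Before that, NOMO1 or SEM (500 cells/well) or P12-Ichikawa (1000 cells/well) leukemia cells, adapted for at least four passages in each medium, were seeded in 1536-well plates (5 μl) and pin-dosed with library compounds in DMSO, 47 μM to 0.79 nM over 11 threefold points.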

[1] = RPMI 5 mM glucose + 10% FBS, 0.000781 µM
[2] = RPMI 5 mM glucose + 10% FBS, 0.00234 µM
[3] = RPMI 5 mM glucose + 10% FBS, 0.00702 µM
[4] = RPMI 5 mM glucose + 10% FBS, 0.0211 µM
[5] = RPMI 5 mM glucose + 10% FBS, 0.0632 µM
[6] = RPMI 5 mM glucose + 10% FBS, 0.19 µM
[7] = RPMI 5 mM glucose + 10% FBS, 0.569 µM
[8] = RPMI 5 mM glucose + 10% FBS, 1.71 µM
[9] = RPMI 5 mM glucose + 10% FBS, 5.12 µM
[10] = RPMI 5 mM glucose + 10% FBS, 15.4 µM
[11] = RPMI 5 mM glucose + 10% FBS, 46.1 µM
[12] = RPMI 5 mM glucose + 10% dialyzed FBS, 0.000781 µM
[13] = RPMI 5 mM glucose + 10% dialyzed FBS, 0.00234 µM
[14] = RPMI 5 mM glucose + 10% dialyzed FBS, 0.00702 µM
[15] = RPMI 5 mM glucose + 10% dialyzed FBS, 0.0211 µM
[16] = RPMI 5 mM glucose + 10% dialyzed FBS, 0.0632 µM
[17] = RPMI 5 mM glucose + 10% dialyzed FBS, 0.19 µM
[18] = RPMI 5 mM glucose + 10% dialyzed FBS, 0.569 µM
[19] = RPMI 5 mM glucose + 10% dialyzed FBS, 1.71 µM
[20] = RPMI 5 mM glucose + 10% dialyzed FBS, 5.12 µM
[21] = RPMI 5 mM glucose + 10% dialyzed FBS, 15.4 µM
[22] = RPMI 5 mM glucose + 10% dialyzed FBS, 46.1 µM
[23] = HPLM + 10% dialyzed FBS, 0.000781 µM
[24] = HPLM + 10% dialyzed FBS, 0.00234 µM
[25] = HPLM + 10% dialyzed FBS, 0.00702 µM
[26] = HPLM + 10% dialyzed FBS, 0.0211 µM
[27] = HPLM + 10% dialyzed FBS, 0.0632 µM
[28] = HPLM + 10% dialyzed FBS, 0.19 µM
[29] = HPLM + 10% dialyzed FBS, 0.569 µM
[30] = HPLM + 10% dialyzed FBS, 1.71 µM
[31] = HPLM + 10% dialyzed FBS, 5.12 µM
[32] = HPLM + 10% dialyzed FBS, 15.4 µM
[33] = HPLM + 10% dialyzed FBS, 46.1 µM

SMILES	cell viability [1] [%]	cell viability [2] [%]	cell viability [3] [%]	cell viability [4] [%]	cell viability [5] [%]	cell viability [6] [%]	cell viability [7] [%]	cell viability [8] [%]	cell viability [9] [%]	cell viability [10] [%]	cell viability [11] [%]	cell viability [12] [%]	cell viability [13] [%]	cell viability [14] [%]	cell viability [15] [%]	cell viability [16] [%]	cell viability [17] [%]	cell viability [18] [%]	cell viability [19] [%]	cell viability [20] [%]	cell viability [21] [%]	cell viability [22] [%]	cell viability [23] [%]	cell viability [24] [%]	cell viability [25] [%]	cell viability [26] [%]	cell viability [27] [%]	cell viability [28] [%]	cell viability [29] [%]	cell viability [30] [%]	cell viability [31] [%]	cell viability [32] [%]	cell viability [33] [%]
COC1(C[S+]([O-])c2ccccc2)CCN(CCc2c[nH]c3ccc(F)cc23)CC1 (stereo not drawn)	107	113	106	106	117	117	116	112	113	103	96.2	111	99.8	115	102	112	111	110	99.8	98.3	103	90.3	–	–	–	–	–	–	–	–	–	–	–
C=CCn1c(=O)c2cnc(Nc3ccc(N4CCN(C)CC4)cc3)nc2n1-c1cccc(C(C)(C)O)n1	118	117	138	128	140	132	122	36.9	18.5	17.9	18.6	–	–	–	–	–	–	–	–	–	–	–	125	116	123	122	125	96.2	52.1	31.8	24.3	28.1	29.2
O=c1[nH]cnc2c1ncn2[C@H]1CC[C@@H](CO)O1	78.5	88.5	93.2	94.7	87.7	87.7	101	90.4	94.4	85.5	48.4	75.4	92.5	97.8	94.5	95.1	83.5	92.8	97.3	103	89	57.1	91.5	91.9	118	97.9	93.2	88.8	98.6	100	107	71.9	55
CC(C)c1ccccc1Cc1cc(C(=O)Nc2ccc([S+](=O)([O-])c3ccccc3C(C)(C)C)cc2)c(O)c(O)c1O	102	116	101	102	114	117	102	109	105	97.4	87.7	103	117	111	115	108	118	104	118	96.8	97	104	–	–	–	–	–	–	–	–	–	–	–
CC(C)C[C@H](NC(=O)[C@H](Cc1ccccc1)NC(=O)c1cnccn1)B(O)O	83.7	91.4	99	96.6	21.6	6.12	2.91	1.66	1.61	1.02	-0.312	94.5	101	98.4	116	17	5	3.79	3	1.75	1.72	-0.0281	99.7	106	108	119	21.6	3.62	4.25	2.64	2.22	1.08	0.274
CC(=O)[C@H]1CC[C@H]2[C@@H]3CCC4=CC(=O)CC[C@]4(C)[C@H]3CC[C@]12C	116	109	122	120	116	111	114	123	128	120	133	114	121	134	134	127	135	136	141	158	140	150	110	122	140	136	127	120	123	133	139	115	147
OC(COC1=C2C(=O)\C=C(/OC2=CC=C1)C([O-])=O)COC3=C4C(=O)\C=C(/OC4=CC=C3)C([O-])=O	72.6	74.5	74.7	76.4	80.4	74.5	74.8	83.3	71	80.3	84.8	75.4	82	73.3	76.4	86	72.7	89.1	88.6	87.9	86	90.4	95.5	86.8	93.7	94.2	94.8	80.8	96.3	86.1	86.3	94.5	93
C[N+](C)([O-])CCNc1ccc(NCC[N+](C)(C)[O-])c2c1C(=O)c1c(O)ccc(O)c1C2=O	84.4	86.9	84.1	97.2	89.4	94.5	91.4	90.4	33	55.8	19.8	90.3	93.6	92.6	92.7	102	99.6	90.5	77	59.7	48.5	44	84.5	94.9	96.7	103	108	97.2	80.6	70.2	51.2	48	38.3
COc1cc(N[S+](=O)([O-])c2ccc(N)cc2)nc(OC)n1	107	106	116	111	124	111	112	103	96.3	111	120	105	91.9	104	103	102	115	110	99.9	94	116	111	102	106	111	116	109	92.5	114	112	99.3	132	109
O=C1NC(O)CCN1[C@@H]1O[C@H](CO)[C@@H](O)[C@H]1O (stereo partly drawn)	121	110	104	112	110	110	105	105	109	108	32.3	112	108	113	108	110	110	125	126	111	106	34.8	145	124	123	142	113	131	143	116	111	92.2	21
COc1cc(-c2nn(C3CCC(N4CCN(C(C)=O)CC4)CC3)c3ncnc(N)c23)ccc1NC(=O)c1cc2ccccc2n1C (stereo not drawn)	104	117	101	109	107	111	106	113	112	89.2	26.8	106	110	120	119	129	115	113	112	106	109	31.3	–	–	–	–	–	–	–	–	–	–	–
N\C1=N\C2=C(N=C[N]2COC(CO)CO)C(=O)N1	110	119	114	118	103	107	121	110	116	101	4.52	99.5	112	99.5	102	122	117	117	112	99.8	95.5	3.67	88.7	110	116	114	131	120	133	109	110	92.2	5.43
CC(C)(C)NC(=O)[C@@H]1CN(Cc2cccnc2)CCN1C[C@@H](O)C[C@@H](Cc1ccccc1)C(=O)N[C@H]1c2ccccc2C[C@H]1O.O=S(=O)(O)O	112	112	128	128	120	119	132	136	133	130	107	99.5	117	123	116	120	119	125	155	145	136	98	103	122	111	108	117	105	106	127	122	130	90.9
C#C[C@]1(O)CC[C@H]2[C@@H]3CCc4cc(OC)ccc4[C@H]3CC[C@@]21C	117	124	108	110	123	123	117	108	106	104	93.5	115	107	106	124	120	108	103	109	104	103	107	108	123	114	118	117	114	107	105	109	102	95.4

— the supplement of paper PMC11451515
